Values quoted from earlier work in patent US11155746B2, “Compositions and methods for reducing hydrogen sulfide and microbial influenced corrosion in crude oil, natural gas, and in associated equipment” (priority 2017, dated 2021).

Conditions: atmospheric exposure

S [H2S, hydrogen sulfide]
exposure concentration that can be rapidly fatal: above 600 ppm | exposure concentration that can cause damage to internal organs: above 100 ppm
